Results: patent US20240024494A1, “SMALL-MOLECULE CONJUGATE AND USE THEREOF” (SHANGHAI MEWSGEN BIOTECHNOLOGY CO., LTD, priority 2020, published 2024)
Read-outs that look alike come from different tables or passages of the source.

Tests used:
hERG potassium channel = hERG potassium channel (Homo sapiens, UniProt Q12809); test: cell-based
Procedure: CHO-hERG cells were cultured in a 175-cm^2 culture flask. After a cell density reached a culture solution was removed, and the cells were washed once with 7 mL of phosphate buffered saline (PBS) and digested with 3 mL of detachin. After the complete digestion, 7 mL of a culture solution was added for neutralization, the mixture was centrifuged, a supernatant was sucked away, and then 5 mL of the culture solution was added for resuspension so as to ensure that the cell density was 2-5×10^6/mL.
Forming processes of single-cell high-impedance sealing and whole-cell mode were both automatically completed by a Qpatch instrument. After a whole-cell recording mode was obtained, cells were clamped at −80 millivolts. Before a depolarization stimulation of +40 millivolt for 5 seconds was given, a preset voltage of −50 millivolts was firstly given for 50 milliseconds, then repolarization was performed to −50 millivolt and maintained for 5 seconds, and then the voltage returned to −80 millivolts. […] At least 3 cells (n≥3) were tested per concentration.
20 mM of a compound stock was diluted in DMSO, and 10 μL of 20 mM of the compound stock was added to 20 μL of a DMSO solution and triply serially diluted to 6 DMSO concentrations. […] Experimental data was analyzed by a GraphPad Prism 5.0 software.

[1] = tested on: human esophageal cancer KYSE-150; test: In-vivo antitumor activity test in human esophageal cancer KYSE-150 (subcutaneous tumor block in nude mice); parameters: species or system BALB/C nude mice; conditions: for RTV (d22) / Body weight of animals (After a tumor is removed) / Tumor inhibition rate %: KYSE-150; for Body weight of animals (After a tumor is removed) / Tumor inhibition rate %: d22
Procedure: (§1) Animals: BALB/C nude mice (SPF grade), male, and 18-20 g. The compounds were firstly added with DMSO at a total amount of 4%, then added with Tween-80 at a total amount of 2% for assisting dissolution, then added with PEG300 at a total amount of 5%, and finally added with sterilized normal saline to be prepared into a solution at 1 mg/mL. Idasanutlin was firstly added with DMSO at a total amount of 4%, then added with Tween-80 at a total amount of 2% for assisting dissolution, then added with PEG300 at a total amount of 5%, and finally added with sterilized normal saline to be prepared into a solution at 2.5 mg/mL.
A well-grown human esophageal cancer KYSE-150 tumor mass was taken and aseptically cut into uniform small blocks of about 3 mm in size, and a right axilla of each mouse was subcutaneously inoculated with one block through a trocar. […] The animals were regrouped according to a tumor size. The animals with too large and too small tumors were sifted out. An average tumor volume in each group was approximately the same. An administration was started according to the following solution with an administration volume of 0.2 mL/20 g body weight. A long diameter a (mm) of the tumor and a short diameter b (mm) vertical to the tumor were measured by a digital display electronic caliper 2 times a week from day 9 of the inoculation. A tumor volume was calculated by the formula: TV=ab^2/2, and a relative tumor volume was calculated by the formula: RTV=Vt/Vo, wherein Vo was the obtained tumor volume measured at a cage separation (i.e. d1) and Vt was the tumor volume measured at each time. The animals were sacrificed 30 days after the inoculation (d22) and weighed, tumor mass was obtained by dissection and weighed, and the results were determined according to the following formula: […]

[2] = tested on: SW1990 (human pancreatic carcinoma cells); test: Tumor cell proliferation inhibition test, CCK-8 method (Example 19); format: cell-based
Procedure: (§2) A part of the compounds prepared in the examples of the present disclosure were subjected to a tumor cell proliferation inhibition test by using a CCK-8 method. A cell line HCT116 (human colon carcinoma cells) and SW1990 (human pancreatic carcinoma cells) were purchased from Shanghai Meixuan Technology Co., Ltd. Samples (a part of the compounds prepared in the examples) were dissolved in DMSO (Merck), prepared into a concentration of 10 mM, and finally triply diluted in DMEM or McCoy's 5A 1640 medium to 8 concentration gradients. A cell culture solution was collected when a cell culture met a test requirement, 10 μL of the cell culture solution was uniformly coated on a cell counting plate, cells were counted for 3 times under a microscope, and a cell density was calculated by taking an average value; and a 96-well plate (Corning, #3599) was taken, 200 μL of the cell culture solution was added into each well for cell inoculation at a cell concentration of 6×10^3 cells per well, and the inoculated 96-well plate was incubated in a cell incubator containing 5% CO2 at 37° C. for 24 h. An old culture medium was removed by suction, 200 μL of the triply diluted sample DMEM or McCoy's 5A 1640 medium at an initial concentration of 10 μmol/L was added to each well, the DMSO content was controlled to be 1%, three duplicate wells were set, PBS was used as a blank control, and the plate was incubated in the incubator for 72 h. The original DMEM or McCoy's 5A 1640 medium in the 96-well plate and a PBS buffer in a final row were sucked out, a prepared CCK-8 solution (90% DMEM or McCoy's 5A 1640 medium+10% CCK-8) was added, the mixture was incubated in an incubator, and an absorbance was read by using a Biotek microplate reader. Cell growth inhibition rate IC %=(blank control well OD value−administration well OD value)/blank control well OD value×100%.

[3] = tested on: HCT116 (human colon carcinoma cells); test: as above; format: cell-based
Procedure: as §2

[4] = In-vivo antitumor activity test in human stromal tumor SHG44 (subcutaneous tumor block in nude mice); parameters: species or system BALB/C nude mice; conditions: for RTV (d22) / Tumor inhibition rate % / Body weight of animals (After a tumor is removed): SHG44; for Tumor inhibition rate % / Body weight of animals (After a tumor is removed): d22; for Body weight of animals (After a tumor is removed): in g (unit assumed)
Procedure: as §1
(§3) A well-grown human stromal tumor SHG44 mass was taken and aseptically cut into uniform small blocks of about 3 mm in size, and a right axilla of each mouse was subcutaneously inoculated with one block through a trocar. […] The animals were regrouped according to a tumor size. The animals with too large and too small tumors were sifted out. An average tumor volume in each group was approximately the same. An administration was started according to the following solution with an administration volume of 0.2 mL/20 g body weight. A long diameter a (mm) of the tumor and a short diameter b (mm) vertical to the tumor were measured by a digital display electronic caliper 2 times a week from day 9 of the inoculation. A tumor volume was calculated by the formula: TV=ab^2/2, and a relative tumor volume was calculated by the formula: RTV=Vt/Vo, wherein Vo was the obtained tumor volume measured at a cage separation (i.e. d1) and Vt was the tumor volume measured at each time. The animals were sacrificed 30 days after the inoculation (d22) and weighed, tumor mass was obtained by dissection and weighed, and the results were determined according to the following formula: […]

[5] = tested on: human gastric carcinoma MGC803; test: In-vivo antitumor activity test in human gastric carcinoma MGC803 (subcutaneous tumor block in nude mice); parameters: species or system BALB/C nude mice; conditions: for RTV (d22) / Body weight of animals (After a tumor is removed) / Tumor inhibition rate %: MGC803; for Body weight of animals (After a tumor is removed) / Tumor inhibition rate %: d22
Procedure: as §1
as §3, with “gastric carcinoma MGC803” for “stromal”, “tumor” for “tumor SHG44”

[6] = 10 mg/kg, Ipx5 each week for 2 continuous weeks

hERG potassium channel, sequence (Q12809 whole entry): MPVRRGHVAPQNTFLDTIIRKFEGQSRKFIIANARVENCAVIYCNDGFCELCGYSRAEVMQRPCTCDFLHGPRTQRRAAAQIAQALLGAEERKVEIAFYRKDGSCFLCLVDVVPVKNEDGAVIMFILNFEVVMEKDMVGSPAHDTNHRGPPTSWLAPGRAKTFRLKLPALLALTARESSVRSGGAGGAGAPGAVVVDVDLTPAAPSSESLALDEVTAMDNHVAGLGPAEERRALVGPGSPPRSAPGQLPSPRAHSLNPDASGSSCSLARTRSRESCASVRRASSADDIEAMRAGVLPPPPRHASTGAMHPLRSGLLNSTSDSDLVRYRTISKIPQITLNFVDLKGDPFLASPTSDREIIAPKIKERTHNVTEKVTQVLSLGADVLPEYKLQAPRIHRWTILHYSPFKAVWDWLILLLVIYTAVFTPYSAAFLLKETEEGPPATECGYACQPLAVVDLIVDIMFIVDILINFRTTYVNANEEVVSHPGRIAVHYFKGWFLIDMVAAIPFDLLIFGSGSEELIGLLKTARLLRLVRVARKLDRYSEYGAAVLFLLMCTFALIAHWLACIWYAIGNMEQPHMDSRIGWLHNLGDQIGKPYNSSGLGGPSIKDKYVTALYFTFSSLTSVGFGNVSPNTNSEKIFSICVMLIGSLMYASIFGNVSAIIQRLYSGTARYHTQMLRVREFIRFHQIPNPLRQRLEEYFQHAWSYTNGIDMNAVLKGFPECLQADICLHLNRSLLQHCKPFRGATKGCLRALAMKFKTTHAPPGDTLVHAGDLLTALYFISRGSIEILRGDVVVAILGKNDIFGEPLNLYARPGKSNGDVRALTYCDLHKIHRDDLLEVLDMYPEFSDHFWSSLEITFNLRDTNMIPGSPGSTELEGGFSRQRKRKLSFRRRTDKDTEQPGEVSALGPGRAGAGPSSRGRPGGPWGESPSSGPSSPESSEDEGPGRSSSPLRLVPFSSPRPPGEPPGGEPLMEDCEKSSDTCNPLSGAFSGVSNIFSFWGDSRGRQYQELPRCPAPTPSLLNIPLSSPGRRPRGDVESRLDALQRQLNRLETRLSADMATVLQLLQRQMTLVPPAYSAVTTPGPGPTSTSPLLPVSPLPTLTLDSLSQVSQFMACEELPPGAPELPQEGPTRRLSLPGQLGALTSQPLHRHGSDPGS

For `COc1cc(C(=O)NCCOCCOCCOCCOCCC(=O)N[C@@H](C(=O)N[C@@H](CCCNC(N)=O)C(=O)Nc2ccc(COC(=O)N3CCN(C(=O)O[C@H]4CC[C@@]5(C)[C@H](CC[C@@H]6[C@@H]5[C@H](O)C(=O)[C@]5(C)[C@@H](c7ccc(=O)oc7)CC[C@]65O)C4)CC3)cc2)C(C)C)ccc1NC(=O)[C@@H]1N[C@@H](CC(C)(C)C)[C@](C#N)(c2ccc(Cl)cc2F)[C@H]1c1cccc(Cl)c1F` [Compound I-1], the IC50 (hERG potassium channel) was > 40 µM, the “in-vivo antitumor activity of the human esophageal cancer KYSE-150 (in words)” value [1] was “good in-vivo antitumor activity” and the “RTV (d22)” value [1, 6] was 4.87 ± 0.92. The “Body weight of animals (After a tumor is removed)” value (from here on “Body weight of animals”) [1, 6] was 24.51 ± 1.40, the “Tumor inhibition rate %” value [1, 6] was 50.45% and the IC50 ([2]; 72 h) was 0.007 µM. For the same compound, the IC50 ([3]; 72 h) was 0.034 µM, the “in-vivo antitumor activity of the human stromal tumor SHG44 (in words)” value [4] was “good in-vivo antitumor activity” and the “RTV (d22)” value [4, 6] was 2.34 ± 0.32. The “Tumor inhibition rate %” value [4, 6] was 52.03%, the “Body weight of animals” value [4, 6] was 24.78 ± 2.38 and the “in-vivo antitumor activity of the human gastric carcinoma MGC803 (in words)” value [5] was “good in-vivo antitumor activity”. For the same compound, the “RTV (d22)” value [5, 6] was 2.45 ± 0.54, the “Body weight of animals” value [5, 6] was 26.15 ± 1.14 and the “Tumor inhibition rate %” value [5, 6] was 38.54%.
For `COc1cc(C(=O)O)ccc1NC(=O)[C@@H]1N[C@@H](CC(C)(C)C)[C@](C#N)(c2ccc(Cl)cc2F)[C@H]1c1cccc(Cl)c1F` [Idasanutlin, reference compound], the “RTV (d22)” value ([1]; 25 mg/kg, Igx14) was 4.79 ± 0.41, the “Body weight of animals” value ([1]; 25 mg/kg, Igx14) was 24.03 ± 0.95 and the “Tumor inhibition rate %” value ([1]; 25 mg/kg, Igx14) was 51.17%. The IC50 ([2]; Homo sapiens, SW1990, CCK-8, 72 h, Table 1, read-out: IC50 SW1990) was 2.98 µM, the IC50 ([3]; Homo sapiens, HCT-116, CCK-8, 72 h, Table 1, read-out: IC50 HCT116) was 1.06 µM and the “RTV (d22)” value ([4]; 25 mg/kg, Igx14) was 2.95 ± 0.41. The “Tumor inhibition rate %” value ([4]; 25 mg/kg, Igx14) was 39.59%, the “Body weight of animals” value ([4]; 25 mg/kg, Igx14) was 24.47 ± 1.66 and the “RTV (d22)” value ([5]; 25 mg/kg, Igx14) was 2.74 ± 0.81. For the same compound, the “Body weight of animals” value ([5]; 25 mg/kg, Igx14) was 23.58 ± 1.56 and the “Tumor inhibition rate %” value ([5]; 25 mg/kg, Igx14) was 31.36%.
